# Experiments:
# Format in all cases: in vivo
# rats mâles = experiment: Global behaviour and reactivities, rat
# Description: (§1) On a résumé ci-après les résultats des essais pharmacologiques qui ont été entrepris avec les produits selon la présente addition. Dans ces essais, les produits de formule I à étudier ont été administrés par voie intrapéritonéale, en suspension dans une solution aqueuse de gomme arabique, sous un volume de 20 ml/kg chez la souris mâle et sous un volume de 5 ml/kg chez le rat mâle.
# (§2) Pour apprécier le comportement global et les réactivités, des lots de six animaux (souris mâles ou rats mâles) ont été observés avant administration de chaque produit, puis 15 min, 30 min, 1 h, 2 h, 3 h et 24 h après administration de chaque produit. Les résultats sont consignés dans le tableau III ci-après, […]
# souris [1] = experiment: Behavioural despair (forced immersion); conditions: souris
# Description: as §1
# Une demi-heure après avoir reçu le CRL 40933, des lots de 10 souris par dose sont placés dans un espace restreint rempli d'eau sur une hauteur de 6 cm; on note la durée d'immobilité entre la 2e et la 6e minute suivant l'immersion.
# souris mâle [2] = experiment: Toxicity, DL-0; conditions: i.p.
# Description: as §1
# La toxicité a été étudiée chez la souris mâle. Les résultats relatifs à la DL-0 (dose minimale non mortelle) sont donnés dans le tableau II ci-après.
# souris mâles = experiment: Global behaviour and reactivities, mouse; conditions: souris
# Description: as §1, §2
# souris [3] = experiment: Asphyxic anoxia (gallamine triethiodide); conditions: 64 mg/kg et 256 mg/kg i.p.
# Description: as §1
# Des lots de 10 souris par dose reçoivent le CRL 40933 30 min avant l'administration intrapéritonéale de 32 mg/kg de triiodoéthylate de gallamine.
# souris [4] = experiment: Interaction with oxotremorine
# Description: as §1
# Le CRL 40933 est administré à des lots de 6 souris 0,5 h avant l'injection intrapéritonéale de 0,5 mg/kg d'oxotrémorine.
# rat = experiment: Interaction with apomorphine, rat; conditions: apomorphine 0,5 mg/kg s.c., dose not stated
# Description: as §1
# Le CRL 40933 est administré à des lots de 6 rats 0,5 h avant l'injection sous-cutanée de 0,5 mg/kg d'apomorphine.
# rats = experiment: Interaction with amphetamine (stereotypies); conditions: rat; 8 mg/kg à 128 mg/kg i.p.
# Description: as §1
# L'amphétamine (2 mg/kg)est injectée par voie intrapéritonéale à des lots de 6 rats, 30 min après l'administration de CRL 40933.
# souris [5] = experiment: Interaction with barbital (sleep)
# Description: as §1
# Une demi-heure après l'administration de CRL 40933, des lots de 10 souris reçoivent une injection intrapéritonéale de 220 mg/kg de barbital.
# homme = experiment: Clinical trials; conditions: for résultats en tant que médicaments de l'éveil: notamment vieillard, gélules ou comprimés de 100 à 200 mg, 1 à 3 par jour
# From the text: Les études cliniques ont porté sur les troubles de la vigilance, de l'éveil et des états confusionnels, d'une part, et sur les troubles de l'affectivité, du contact et des dépressions, d'autre part.
# souris [6] = experiment: Interaction with apomorphine, mouse
# Description: as §1
# Des lots de 6 souris par dose reçoivent le CRL 40933 0,5 h avant l'injection sous-cutanée d'apomorphine administrée à la dose de 1 ou 16 mg/kg.
# souris [7] = experiment: Motility reduced by hypoxic aggression (acute hypobaric anoxia)
# Description: as §1
# Une demi-heure après avoir reçu le CRL 40933, les souris (10 par dose, 20 témoins) sont soumises à une anoxie hypobare aiguë [dépression de 600 mm Hg (soit environ 8 x 10^4 pascals) en 90 s, puis détente de 45 s], puis elles sont placées en actimètre où leur motilité est enregistrée pendant 10 min.
# souris [8] = experiment: Motility reduced by habituation to the enclosure
# Description: as §1
# Après 18 h de séjour dans les actimètres, les souris (6 par dose, 12 témoins) reçoivent le CRL 40933. Elles sont aussitôt replacées dans leurs enceintes respectives et, 30 min plus tard, on enregistre leur motilité pendant 30 min.
# souris [9] = experiment: Traction test; conditions: 0,5 h after administration, dose not stated
# Description: as §1
# (§3) Les essais sont effectués sur des lots de 10 souris (par dose) 0,5 h après l'administration du CRL 40933.
# souris [10] = experiment: Intergroup aggressiveness; conditions: dose not stated
# Description: as §1
# Après avoir séjourné pendant 3 semaines dans chacune des moitiés d'une cage séparées par une cloison opaque, des groupes de 3 souris reçoivent le CRL 40933. 30 min plus tard, les deux groupes d'une même cage sont réunis par retrait de la cloison et on note le nombre de combats qui surviennent en 10 min.
# souris [11] = experiment: Interaction with reserpine
# Description: as §1
# Quatre heures après l'injection intrapéritonéale de 2,5 mg/kg de réserpine, des lots de 6 souris reçoivent le CRL 40933.
# souris [12] = experiment: Electroshock
# Description: as §1, §3
# souris [13] = experiment: Spontaneous motility (actimeter)
# Description: as §1
# Une demi-heure, après avoir reçu le CRL 40933, les souris (6 par dose, 12 témoins) sont placées en actimètre où leur motilité est enregistrée pendant 30 min.
# souris mâle [14] = experiment: Pentobarbital-induced sleep duration
# From the text: Les composés selon l'invention se distinguent du benzhydrylsulfinylacétamide (CRL 40476) précité par une différence d'action vis-à-vis du sommeil barbiturique. […]. Cette différence d'action qui est intéressante sur le plan thérapeutique est illustrée par le tableau IV
# souris [15] = experiment: Four plates test
# Description: as §1, §3
# SNC = experiment: Essential activity on the CNS (Tableau I and conclusions of the neuropsychopharmacological study); conditions: in vivo
# From the text: Dans le tableau I ci-après, on a consigné un certain nombre de composés selon la formule I de façon nullement limitative, en mentionnant l'activité essentielle sur le SNC.
# Les composés de formule I agissent tous sur le SNC. Les produits des exemples 1-3 et 7-8 sont des agents stimulants, en revanche les produits des exemples 4-6 sont des agents sédatifs.
# [16] = dose 256 mg/kg i.p., 0,5 h before pentobarbital
# [17] = 16 mg/kg, 64 mg/kg et 256 mg/kg i.p.
structure (smiles),measurement,setting,value
CC(C)NC(=O)C[S+]([O-])C(c1ccccc1)c1ccccc1 (stereo not shown) [Exemple 2],Observations (comportement global et réactivités),rats mâles; 128 mg/kg i.p.,mydriase pendant 3 h
same,durée d'immobilité,souris [1]; dès la dose de 16 mg/kg i.p.,diminue nettement
same,DL-O,souris mâle [2],supérieure à 512 mg/kg
same,hypothermie modérée,"souris mâles; 256 mg/kg i.p., pendant 0,5 h",-1 °C
same,Observations (comportement global et réactivités),souris mâles; 512 mg/kg i.p.,"respiration déprimée, dyspnée, sédation, diminution de la réactivité au toucher, puis excitation au bout de 3 h"
same,mortalité,souris mâles; 512 mg/kg i.p.,pas de mortalité
same,Observations (comportement global et réactivités),souris mâles; 128 mg/kg i.p.,"sédation, puis excitation 3 h après admi-nistration"
same,Observations (comportement global et réactivités),souris mâles; 256 mg/kg i.p.,"sédation pendant 0,5 h avec diminution de la fréquence respiratoire - hyporéactivité au toucher pendant 2 h - hypothermie modérée (-1°C) pendant 0,5 h - excitation 3 h après administration"
same,apparition des convulsions anoxiques provoquées par le triiodoéthylate de gallamine,souris [3],retarde modérément
same,"signes de stimulation cholinergique périphérique, notamment la défécation",souris [4]; 64 mg/kg à 256 mg/kg i.p.,semble entraîner une diminution
same,intensité des tremblements provoqués par l'oxotrémorine,souris [4]; 256 mg/kg i.p.,semble diminuer modérément
same,action hypothermisante de l'oxotrémorine,souris [4]; dose not stated,ne modifie pratiquement pas
same,stéréotypies induites par l'apomorphine,rat,ne sont pas modifiées
same,stéréotypies amphétaminiques,rats,semble potentialiser faiblement
same,durée du sommeil barbiturique,souris [5]; 256 mg/kg i.p.,diminue nettement
same,action contre l'énurésie,homme,agissent efficacement
same,résultats en tant que médicaments de l'éveil,homme,excellents résultats
same,comportement de verticalisation et stéréotypies (apomorphine),souris [6]; dose not stated,laisse inchangés
same,hypothermie produite par l'apomorphine,souris [6]; dose not stated,laisse inchangés
same,récupération motrice (motilité réduite par agression hypoxique),souris [7]; 64 mg/kg et surtout 256 mg/kg i.p.,amélioration nette
same,activité chez la souris habituée à son enceinte,"souris [8]; 4 mg/kg, 64 mg/kg et 256 mg/kg i.p.",semble provoquer une reprise de l'activité
same,reprise de l'activité chez la souris habituée à son enceinte,souris [8]; intermediate dose 16 mg/kg i.p.,n'est pas observé
same,déficit moteur (traction),souris [9],ne provoque pas de déficit moteur majeur
same,agressivité intergroupes (nombre de combats),souris [10],diminue très modérément
same,ptôsis réserpinique,souris [11]; 256 mg/kg i.p.,diminue très modérément
same,effets convulsivants de l'électrochoc,souris [12]; 64 mg/kg à 256 mg/kg i.p.,s'oppose
same,motilité spontanée,souris [13]; 256 mg/kg i.p.,hypermotilité nette
same,Action sur la durée du sommeil induit par le pentobarbital (50 mg/kg i.p.) effet,souris mâle [14]; [16],(a)
same,nombre de passages punis,"souris [15]; 0,5 h after administration, dose not stated",n'entraîne pas d'augmentation
same,Activité sur le SNC,SNC,stimulant
same,conclusion of the neuropsychopharmacological study: main type of CNS effect,SNC,agent psychotrope
CCNC(=O)C[S+]([O-])C(c1ccccc1)c1ccccc1 (stereo not shown) [Exemple 4],"hypomotilité de ""désespoir""",souris [1]; dose not stated,diminution
same,DL-O,souris mâle [2],supérieure à 512 mg/kg
same,ensemble d'effets de type sédatif,souris mâles; doses faibles et moyennes,"sédation, hypo- réactivité, hypoagressivité, hypothermie"
same,sommeil barbiturique,souris [5]; dose not stated,effet antagoniste
same,récupération motrice après hypoxie,souris [7]; doses élevées,amélioration sensible
same,activité chez la souris habituée à son enceinte,souris [8]; doses élevées,reprise modérée de l'activité
same,effet convulsivant de l'électrochoc,souris [12]; doses faibles et moyennes,antagonisme
same,activité motrice,souris [13]; doses faibles et moyennes,absence de toute diminution d'activité motrice
same,motilité spontanée,souris [13]; doses élevées,hypermotilité discrète
same,Action sur la durée du sommeil induit par le pentobarbital (50 mg/kg i.p.) effet,"souris mâle [14]; dose 64 mg/kg i.p., 0,5 h before pentobarbital",(a)
same,Action sur la durée du sommeil induit par le pentobarbital (50 mg/kg i.p.) effet,"souris mâle [14]; dose 128 mg/kg i.p., 0,5 h before pentobarbital",(a)
same,Action sur la durée du sommeil induit par le pentobarbital (50 mg/kg i.p.) effet,souris mâle [14]; [16],(a)
same,Activité sur le SNC,SNC,sédatif
NC(=O)C[S+]([O-])C(c1ccccc1)c1ccc(F)cc1 (stereo not shown) [Exemple 9],Observations (comportement global et réactivités),rats mâles; 8 mg/kg i.p.,"hyporéactivité fugace (0,5 h) et diminution du tonus musculaire"
same,Observations (comportement global et réactivités),rats mâles; 32 mg/kg i.p.,"diminution fugace (0,5 h) de la réactivité au toucher et du tonus musculaire"
same,Observations (comportement global et réactivités),rats mâles; 128 mg/kg i.p.,"excitation pendant 2 h avec hyper-réactivité au toucher pendant 0,5 h"
same,durée d'immobilité,souris [1]; [17],diminue fortement
same,DL-O,souris mâle [2],supérieure à 512 mg/kg
same,Observations (comportement global et réactivités),souris mâles; 16 mg/kg i.p.,excitation pendant 1 h pour 33 % des animaux
same,excitation,"souris mâles; 16 mg/kg i.p., pendant 1 h",33 % des animaux
same,Observations (comportement global et réactivités),souris mâles; 64 mg/kg i.p.,"excitation apparaissant en 30 minutes, maximale après 2 h et durant 24 h - apparition tardive (2-3 h)- 4 mouvements stéréotypés de faible intensité - réactivité au toucher pendant 2-3 h"
same,Observations (comportement global et réactivités),souris mâles; 256 mg/kg i.p.,excitation apparaissant en 30 minutes et maximale 2 à 3 h après administration - présence de stétréotypies nettes mais tardives - réactivité au toucher pendant 3 h
same,signes de stimulation cholinergique périphérique dus à l'oxotrémorine,souris [4]; dose not stated,ne modifie pas
same,tremblements induits par l'oxotrémorine,souris [4]; dose not stated,n'est pratiquement pas modifiée
same,baisse de température provoquée par l'oxotrémorine,souris [4]; highest dose used,s'oppose
same,durée du sommeil barbiturique,souris [5]; [17],diminue nettement
same,action contre l'énurésie,homme,agissent efficacement
same,résultats en tant que médicaments de l'éveil,homme,excellents résultats
same,action hypothermisante de l'apomorphine,souris [6]; 256 mg/kg i.p.,s'oppose
same,comportement de verticalisation et stéréotypies (apomorphine),souris [6]; 256 mg/kg i.p.,sans modifier
same,activité motrice chez la souris habituée à son enceinte,souris [8]; 64 mg/kg et 256 mg/kg i.p.,reprise de l'activité motrice
same,déficit moteur (traction),souris [9],ne provoque pas de déficit moteur
same,hypothermie réserpinique,"souris [11]; 256 mg/kg i.p., 1,5 h",s'oppose tardivement
same,ptosis réserpinique,"souris [11]; 256 mg/kg i.p., 24 h",s'oppose tardivement
same,effets convulsivants de l'électrochoc,souris [12]; 256 mg/kg i.p.,s'oppose partiellement
same,durée de l'hypermotilité,souris [13],≥ 4 h
same,time of maximal hypermotility after administration,souris [13],"0,5 h"
same,motilité spontanée,souris [13]; dès la dose de 16 mg/kg i.p.,pypermotilité
same,Action sur la durée du sommeil induit par le pentobarbital (50 mg/kg i.p.) effet,"souris mâle [14]; dose 16 mg/kg i.p., 0,5 h before pentobarbital",(a)
same,passages punis,souris [15]; 64 et 256 mg/kg i.p.,nette augmentation
same,Activité sur le SNC,SNC,stimulant
same,conclusion of the neuropsychopharmacological study: main type of CNS effect,SNC,effet stimulant du SNC qui est essentiel
same,conclusion: effets de type antidépresseur,SNC,à forte dose seulement un effet antidépresseur du SNC
O=C(C[S+]([O-])C(c1ccccc1)c1ccccc1)N1CCOCC1 (stereo not shown) [Exemple 6],Activité sur le SNC,SNC,sédatif
CC(C)(C)NC(=O)C[S+]([O-])C(c1ccccc1)c1ccccc1 (stereo not shown) [Exemple 3],Activité sur le SNC,SNC,stimulant
